Columns and labels:
Assay type in all cases: in vivo
[1] = system: barnyardgrass (Echinochloa crus-galli); test: Test A preemergence, barnyardgrass; details: Preemergence; for Barnyardgrass plant response rating: 125 g ai/ha, visual injury on 0 to 100 scale (0 no effect, 100 complete control), approximately 10 days; for Plant response rating, Barnyardgrass: 500 g ai/ha, 0 to 100 scale (0 no effect, 100 complete control)
Method in brief: (§1)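 Compounds in non-phytotoxic solvent with surfactant. Soil: loam/sand. Preemergence via directed soil spray after seeding; postemergence on seedlings 2–10 cm, one- to two-leaf.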

kochia (Bassia scoparia) [2] = test: Test A postemergence, kochia; details: Postemergence, 0 to 100 scale (0 no effect, 100 complete control); for Plant response rating, Kochia: 125 g ai/ha; for Kochia plant response rating: 500 g ai/ha, visual injury vs untreated controls after approx. 10 days
Method in brief: as §1

[3] = system: blackgrass (Alopecurus myosuroides); test: Test A postemergence, blackgrass; details: Postemergence, 0 to 100 scale (0 no effect, 100 complete control); for Plant response rating, Blackgrass: 125 g ai/ha; for Blackgrass plant response rating: 500 g ai/ha, visual injury vs untreated controls after approx. 10 days
Method in brief: as §1

[4] = system: pigweed (Amaranthus retroflexus); test: Test A preemergence, pigweed; details: for Pigweed plant response rating: 125 g ai/ha, visual injury on 0 to 100 scale (0 no effect, 100 complete control), approximately 10 days; for Plant response rating, Pigweed: 500 g ai/ha, 0 to 100 scale (0 no effect, 100 complete control)
Method in brief: (§2)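 Seeds are sown in loam mixed with sand and sprayed on the soil surface right after planting for the preemergence test. Postemergence pots are sprayed once seedlings reach 2 to 10 cm at the one- to two-leaf stage. The same surfactant-containing, non-phytotoxic solvent formulation serves both.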

[5] = system: ragweed (common ragweed, Ambrosia artemisiifolia); test: Test A preemergence, ragweed; details: Preemergence; for Ragweed plant response rating: 125 g ai/ha, visual injury on 0 to 100 scale (0 no effect, 100 complete control), approximately 10 days; for Plant response rating, Ragweed: 500 g ai/ha, 0 to 100 scale (0 no effect, 100 complete control)
Method in brief: as §1

[6] = system: barnyardgrass (Echinochloa crus-galli); test: Test A postemergence, barnyardgrass; details: Postemergence, 0 to 100 scale (0 no effect, 100 complete control); for Plant response rating, Barnyardgrass: 125 g ai/ha; for Barnyardgrass plant response rating: 500 g ai/ha, visual injury vs untreated controls after approx. 10 days
Method in brief: as §2

[7] = system: pigweed (Amaranthus retroflexus); test: Test A postemergence, pigweed; details: Postemergence, 0 to 100 scale (0 no effect, 100 complete control); for Plant response rating, Pigweed: 125 g ai/ha; for Pigweed plant response rating: 500 g ai/ha, visual injury vs untreated controls after approx. 10 days
Method in brief: as §1

[8] = system: Ryegrass, Italian (Italian ryegrass, Lolium multiflorum); test: Test A preemergence, Ryegrass, Italian; details: Preemergence; for Ryegrass, Italian plant response rating: 125 g ai/ha, visual injury on 0 to 100 scale (0 no effect, 100 complete control), approximately 10 days; for Plant response rating, Ryegrass, Italian: 500 g ai/ha, 0 to 100 scale (0 no effect, 100 complete control)
Method in brief: as §1

[9] = system: Foxtail, Giant (giant foxtail, Setaria faberi); test: Test A preemergence, Foxtail, Giant; details: Preemergence; for Foxtail, Giant plant response rating: 125 g ai/ha, visual injury on 0 to 100 scale (0 no effect, 100 complete control), approximately 10 days; for Plant response rating, Foxtail, Giant: 500 g ai/ha, 0 to 100 scale (0 no effect, 100 complete control)
Method in brief: as §1

[10] = system: wheat (Triticum aestivum); test: Test A postemergence, wheat; details: Postemergence, 0 to 100 scale (0 no effect, 100 complete control); for Plant response rating, Wheat: 125 g ai/ha; for Wheat plant response rating: 500 g ai/ha, visual injury vs untreated controls after approx. 10 days
Method in brief: as §2

[11] = system: ragweed (common ragweed, Ambrosia artemisiifolia); test: Test A postemergence, ragweed; details: Postemergence, 0 to 100 scale (0 no effect, 100 complete control); for Plant response rating, Ragweed: 125 g ai/ha; for Ragweed plant response rating: 500 g ai/ha, visual injury vs untreated controls after approx. 10 days
Method in brief: as §1

kochia (Bassia scoparia) [12] = test: Test A preemergence, kochia; details: Preemergence; for Kochia plant response rating: 125 g ai/ha, visual injury on 0 to 100 scale (0 no effect, 100 complete control), approximately 10 days; for Plant response rating, Kochia: 500 g ai/ha, 0 to 100 scale (0 no effect, 100 complete control)
Method in brief: as §1

[13] = system: Ryegrass, Italian (Italian ryegrass, Lolium multiflorum); test: Test A postemergence, Ryegrass, Italian; details: Postemergence, 0 to 100 scale (0 no effect, 100 complete control); for Plant response rating, Ryegrass, Italian: 125 g ai/ha; for Ryegrass, Italian plant response rating: 500 g ai/ha, visual injury vs untreated controls after approx. 10 days
Method in brief: as §1

[14] = system: Foxtail, Giant (giant foxtail, Setaria faberi); test: Test A postemergence, Foxtail, Giant; details: Postemergence, 0 to 100 scale (0 no effect, 100 complete control); for Plant response rating, Foxtail, Giant: 125 g ai/ha; for Foxtail, Giant plant response rating: 500 g ai/ha, visual injury vs untreated controls after approx. 10 days
Method in brief: as §1

corn (Zea mays) = test: Test A postemergence, corn; details: Postemergence, 0 to 100 scale (0 no effect, 100 complete control); for Plant response rating, Corn: 125 g ai/ha; for Corn plant response rating: 500 g ai/ha, visual injury vs untreated controls after approx. 10 days
Method in brief: as §1

[15] = system: galium (catchweed bedstraw, Galium aparine); test: Test A postemergence, galium; details: Postemergence, 0 to 100 scale (0 no effect, 100 complete control); for Plant response rating, Galium: 125 g ai/ha; for Galium plant response rating: 500 g ai/ha, visual injury vs untreated controls after approx. 10 days
Method in brief: as §2

COC1CCCN(C(=O)c2cc(NS(=O)(=O)C(F)(F)F)c(C)cc2C)C1 (stereo not shown) [Compound 175]
Barnyardgrass plant response rating [1]: 90
Plant response rating, Barnyardgrass [1]: 100
Plant response rating, Kochia (kochia (Bassia scoparia) [2]): 10
Kochia plant response rating (kochia (Bassia scoparia) [2]): 50
Plant response rating, Blackgrass [3]: 0
Blackgrass plant response rating [3]: 20
Pigweed plant response rating [4]: 90
Plant response rating, Pigweed [4]: 100
Ragweed plant response rating [5]: 80
Plant response rating, Ragweed [5]: 100
Plant response rating, Barnyardgrass [6]: 20
Barnyardgrass plant response rating [6]: 90
Plant response rating, Pigweed [7]: 50
Pigweed plant response rating [7]: 90
Ryegrass, Italian plant response rating [8]: 90
Plant response rating, Ryegrass, Italian [8]: 100
Foxtail, Giant plant response rating [9]: 100
Plant response rating, Foxtail, Giant [9]: 100
Plant response rating, Wheat [10]: 10
Wheat plant response rating [10]: 80
Plant response rating, Ragweed [11]: 50
Ragweed plant response rating [11]: 90
Kochia plant response rating (kochia (Bassia scoparia) [12]): 90
Plant response rating, Kochia (kochia (Bassia scoparia) [12]): 100
Plant response rating, Ryegrass, Italian [13]: 30
Ryegrass, Italian plant response rating [13]: 80
Plant response rating, Foxtail, Giant [14]: 0
Foxtail, Giant plant response rating [14]: 30
Plant response rating, Corn (corn (Zea mays)): 0
Corn plant response rating (corn (Zea mays)): 10
Plant response rating, Galium [15]: 80
Galium plant response rating [15]: 90

Cc1cc(C)c(C2=NOC3(CCOCC3)C2)cc1NS(=O)(=O)C(F)(F)F [Compound 177]
Barnyardgrass plant response rating [1]: 80
Plant response rating, Barnyardgrass [1]: 100
Plant response rating, Kochia (kochia (Bassia scoparia) [2]): 20
Kochia plant response rating (kochia (Bassia scoparia) [2]): 70
Plant response rating, Blackgrass [3]: 0
Blackgrass plant response rating [3]: 30
Pigweed plant response rating [4]: 80
Plant response rating, Pigweed [4]: 100
Ragweed plant response rating [5]: 70
Plant response rating, Ragweed [5]: 90
Plant response rating, Barnyardgrass [6]: 70
Barnyardgrass plant response rating [6]: 90
Plant response rating, Pigweed [7]: 60
Pigweed plant response rating [7]: 90
Ryegrass, Italian plant response rating [8]: 100
Plant response rating, Ryegrass, Italian [8]: 100
Foxtail, Giant plant response rating [9]: 70
Plant response rating, Foxtail, Giant [9]: 100
Plant response rating, Wheat [10]: 20
Wheat plant response rating [10]: 80
Plant response rating, Ragweed [11]: 90
Ragweed plant response rating [11]: 90
Kochia plant response rating (kochia (Bassia scoparia) [12]): 100
Plant response rating, Kochia (kochia (Bassia scoparia) [12]): 100
Plant response rating, Ryegrass, Italian [13]: 40
Ryegrass, Italian plant response rating [13]: 90
Plant response rating, Foxtail, Giant [14]: 10
Foxtail, Giant plant response rating [14]: 60
Plant response rating, Corn (corn (Zea mays)): 0
Corn plant response rating (corn (Zea mays)): 50
Plant response rating, Galium [15]: 90
Galium plant response rating [15]: 90

Cc1cc(C)c(N(S(=O)(=O)C(F)(F)F)S(=O)(=O)C(F)(F)F)cc1C1=NOC2(CCOCC2)C1 [Compound 178]
Barnyardgrass plant response rating [1]: 90
Plant response rating, Barnyardgrass [1]: 100
Plant response rating, Kochia (kochia (Bassia scoparia) [2]): 20
Kochia plant response rating (kochia (Bassia scoparia) [2]): 70
Plant response rating, Blackgrass [3]: 0
Blackgrass plant response rating [3]: 0
Pigweed plant response rating [4]: 100
Plant response rating, Pigweed [4]: 100
Ragweed plant response rating [5]: 80
Plant response rating, Ragweed [5]: 90
Plant response rating, Barnyardgrass [6]: 40
Barnyardgrass plant response rating [6]: 90
Plant response rating, Pigweed [7]: 60
Pigweed plant response rating [7]: 90
Ryegrass, Italian plant response rating [8]: 90
Plant response rating, Ryegrass, Italian [8]: 100
Foxtail, Giant plant response rating [9]: 90
Plant response rating, Foxtail, Giant [9]: 100
Plant response rating, Wheat [10]: 10
Wheat plant response rating [10]: 30
Plant response rating, Ragweed [11]: 40
Ragweed plant response rating [11]: 80
Kochia plant response rating (kochia (Bassia scoparia) [12]): 90
Plant response rating, Kochia (kochia (Bassia scoparia) [12]): 100
Plant response rating, Ryegrass, Italian [13]: 0
Ryegrass, Italian plant response rating [13]: 30
Plant response rating, Foxtail, Giant [14]: 0
Foxtail, Giant plant response rating [14]: 20
Plant response rating, Corn (corn (Zea mays)): 0
Corn plant response rating (corn (Zea mays)): 10
Plant response rating, Galium [15]: 80
Galium plant response rating [15]: 90

Cc1cc(C(F)(F)F)c(C(=O)N2CCCCC2)cc1NS(=O)(=O)C(F)(F)F [Compound 180]
Barnyardgrass plant response rating [1]: 0
Plant response rating, Barnyardgrass [1]: 80
Plant response rating, Kochia (kochia (Bassia scoparia) [2]): 10
Kochia plant response rating (kochia (Bassia scoparia) [2]): 40
Plant response rating, Blackgrass [3]: 0
Blackgrass plant response rating [3]: 20
Pigweed plant response rating [4]: 20
Plant response rating, Pigweed [4]: 70
Ragweed plant response rating [5]: 20
Plant response rating, Ragweed [5]: 70
Plant response rating, Barnyardgrass [6]: 0
Barnyardgrass plant response rating [6]: 10
Plant response rating, Pigweed [7]: 50
Pigweed plant response rating [7]: 70
Ryegrass, Italian plant response rating [8]: 0
Plant response rating, Ryegrass, Italian [8]: 50
Foxtail, Giant plant response rating [9]: 0
Plant response rating, Foxtail, Giant [9]: 90
Plant response rating, Wheat [10]: 0
Wheat plant response rating [10]: 0
Plant response rating, Ragweed [11]: 20
Ragweed plant response rating [11]: 70
Kochia plant response rating (kochia (Bassia scoparia) [12]): 0
Plant response rating, Kochia (kochia (Bassia scoparia) [12]): 0
Plant response rating, Ryegrass, Italian [13]: 0
Ryegrass, Italian plant response rating [13]: 0
Plant response rating, Foxtail, Giant [14]: 10
Foxtail, Giant plant response rating [14]: 10
Plant response rating, Corn (corn (Zea mays)): 0
Corn plant response rating (corn (Zea mays)): 0
Plant response rating, Galium [15]: 70
Galium plant response rating [15]: 90

C#CCN(CC#C)C(=O)c1cc(N(S(=O)(=O)C(F)(F)F)S(=O)(=O)C(F)(F)F)c(C)cc1C [Compound 181]
Barnyardgrass plant response rating [1]: 90
Plant response rating, Barnyardgrass [1]: 100
Plant response rating, Kochia (kochia (Bassia scoparia) [2]): 30
Kochia plant response rating (kochia (Bassia scoparia) [2]): 80
Plant response rating, Blackgrass [3]: 10
Blackgrass plant response rating [3]: 30
Pigweed plant response rating [4]: 40
Plant response rating, Pigweed [4]: 80
Ragweed plant response rating [5]: 50
Plant response rating, Ragweed [5]: 90
Plant response rating, Barnyardgrass [6]: 80
Barnyardgrass plant response rating [6]: 90
Plant response rating, Pigweed [7]: 40
Pigweed plant response rating [7]: 80
Ryegrass, Italian plant response rating [8]: 80
Plant response rating, Ryegrass, Italian [8]: 90
Foxtail, Giant plant response rating [9]: 100
Plant response rating, Foxtail, Giant [9]: 100
Plant response rating, Wheat [10]: 50
Wheat plant response rating [10]: 80
Plant response rating, Ragweed [11]: 80
Ragweed plant response rating [11]: 90
Kochia plant response rating (kochia (Bassia scoparia) [12]): 60
Plant response rating, Kochia (kochia (Bassia scoparia) [12]): 100
Plant response rating, Ryegrass, Italian [13]: 70
Ryegrass, Italian plant response rating [13]: 90
Plant response rating, Foxtail, Giant [14]: 60
Foxtail, Giant plant response rating [14]: 90
Plant response rating, Corn (corn (Zea mays)): 10
Corn plant response rating (corn (Zea mays)): 80
Plant response rating, Galium [15]: 60
Galium plant response rating [15]: 70

Reference: patent publication US20230278972A1, “SUBSTITUTED HALOALKYL SULFONANILIDE HERBICIDES” (FMC Corporation, priority 2020, published 2023)
